Measured values: patent US6225321A (priority 1997, dated 2001)
Where “and” joins values, the source holds several entries; their conditions need not be identical. Equal values may be shown once. Read-outs that look alike come from different tables or passages of the source.

Assay: Pharmacokinetic study of long acting preparation in Beagle dogs
Type: in vivo, Beagle dog
Conditions: for CL/F: read-out: CLt (converted); for Vd/F: read-out: Vss
Procedure: Six Beagle dogs were used. Five Beagle dogs were intramuscularly injected with 30 mg/kg long acting sebacoyl dinalbuphine ester parenteral administration respectively, and another one was injection with 100 mg/kg long acting sebacoyl dinalbuphine ester oily parenteral administration. Blood samples were collected through the vein in front limb of dogs at 1, 2, 6, 24, 30, 48, 54, 72, 78, 96, 102, 120, 168, 192 hours. […] Relationship between time and concentration was analyzed by PCNONLIN computer program. Two compartment model and pharmacokinetic parameters were calculated to depicted absorption, distribution, metabolism, and excretion of drugs in dogs.

[1] = Table 7, Dog 2, Dose 24.3 mg/kg
[2] = Table 7, Dog 2, Dose 81.0 mg/kg
[3] = dog, plasma, im, 24.3 mg/kg, Table 7, Dog 2, Dose 24.3 mg/kg
[4] = dog, plasma, im, 30 mg/kg, Mean of 5 dogs, 30 mg/kg i.m.
[5] = dog, plasma, im, 81 mg/kg, Table 7, Dog 2, Dose 81.0 mg/kg
[6] = individual Dog 1 to Dog 5, lines in this order, 30 mg/kg i.m., listed as SDN, 30 mg/kg

O=C(CCCCCCCCC(=O)Oc1ccc2c3c1O[C@H]1[C@@H](O)CC[C@@]4(O)[C@@H](C2)N(CC2CCC2)CC[C@]314)Oc1ccc2c3c1O[C@H]1[C@@H](O)CC[C@@]4(O)[C@@H](C2)N(CC2CCC2)CC[C@]314 [sebacoyl dinalbuphine ester]
A (Mean of 5 dogs, 30 mg/kg i.m.): 15.0 µg/mL
AUMC (Mean of 5 dogs, 30 mg/kg i.m.): 983.2 h^2 μg/ml
Abs. time (Mean of 5 dogs, 30 mg/kg i.m.): 92.6 h
B (Mean of 5 dogs, 30 mg/kg i.m.): 0.32 µg/mL
Vc (Mean of 5 dogs, 30 mg/kg i.m.): 14.84 L/kg
k12 (Mean of 5 dogs, 30 mg/kg i.m.): 8.51 h⁻¹
k21 (Mean of 5 dogs, 30 mg/kg i.m.): 0.28 h⁻¹
ko (Mean of 5 dogs, 30 mg/kg i.m.): 180.6 µg/kg/h
α (Mean of 5 dogs, 30 mg/kg i.m.): 9.98 h⁻¹
A [1]: 14.1 µg/mL
AUC/D [1]: 0.478 kg·h/mL
AUMC [1]: 915 h^2 ng/ml
Abs. time [1]: 95.6 h
B [1]: 0.22 µg/mL
Vc [1]: 10.21 L/kg
k12 [1]: 5.53 h⁻¹
k21 [1]: 0.13 h⁻¹
ko [1]: 149.9 µg/kg/h
α [1]: 6.85 h⁻¹
A [2]: 59.0 µg/mL
AUC/D [2]: 0.488 kg·h/mL
AUMC [2]: 5026 h^2 ng/ml
Abs. time [2]: 168.0 h
B [2]: 0.51 µg/mL
Vc [2]: 10.21 L/kg
k12 [2]: 8.99 h⁻¹
k21 [2]: 0.11 h⁻¹
ko [2]: 354.2 µg/kg/h
α [2]: 10.73 h⁻¹
AUC [3]: 11900 ng·h/mL
CL/F [3]: 1.21 mL/h/kg
bioavailability (dog, plasma, im, 24.3 mg/kg, Table 7, Dog 2, Dose 24.3 mg/kg, read-out: F): 59%
MRT (dog, plasma, im, 24.3 mg/kg, Table 7, Dog 2, Dose 24.3 mg/kg, read-out: MRT): 78.8 h
Vd/F [3]: 450 L/kg
k el (dog, plasma, im, 24.3 mg/kg, Table 7, Dog 2, Dose 24.3 mg/kg, read-out: k10 (converted)): 0.000336 s⁻¹
half-life (dog, plasma, im, 24.3 mg/kg, Table 7, Dog 2, Dose 24.3 mg/kg, read-out: t1/2,α (converted)): 0.1 h
half-life (dog, plasma, im, 24.3 mg/kg, Table 7, Dog 2, Dose 24.3 mg/kg, read-out: t1/2,β (converted)): 30.6 h
k el (dog, plasma, im, 24.3 mg/kg, Table 7, Dog 2, Dose 24.3 mg/kg, read-out: β (converted)): 6.39e-06 s⁻¹
AUC [4]: 13600 ng·h/mL
CL/F [4]: 1.22 mL/h/kg
Cmax (dog, plasma, im, 30 mg/kg, Mean of 5 dogs, 30 mg/kg i.m., read-out: Cmax): 149 ng/mL
bioavailability (dog, plasma, im, 30 mg/kg, Mean of 5 dogs, 30 mg/kg i.m., read-out: F): 63.1%
MRT (dog, plasma, im, 30 mg/kg, Mean of 5 dogs, 30 mg/kg i.m., read-out: MRT): 73.2 h
Vd/F [4]: 574 L/kg
k el (dog, plasma, im, 30 mg/kg, Mean of 5 dogs, 30 mg/kg i.m., read-out: k10 (converted)): 0.000339 s⁻¹
half-life (dog, plasma, im, 30 mg/kg, Mean of 5 dogs, 30 mg/kg i.m., read-out: t1/2,α (converted)): 0.09 h
half-life (dog, plasma, im, 30 mg/kg, Mean of 5 dogs, 30 mg/kg i.m., read-out: t1/2,β (converted)): 27.7 h
k el (dog, plasma, im, 30 mg/kg, Mean of 5 dogs, 30 mg/kg i.m., read-out: β (converted)): 8.33e-06 s⁻¹
AUC (dog, plasma, im, 30 mg/kg, individual Dog 1 to Dog 5, lines in this order, 30 mg/kg i.m.): 9730 ng·h/mL
MRT (dog, plasma, im, 30 mg/kg, individual Dog 1 to Dog 5, lines in this order, 30 mg/kg i.m., read-out: MRT): 84.3 h
AUC [5]: 36200 ng·h/mL
CL/F [5]: 1.64 mL/h/kg
Cmax (dog, plasma, im, 81 mg/kg, Table 7, Dog 2, Dose 81.0 mg/kg, read-out: Cmax): 204 ng/mL
bioavailability (dog, plasma, im, 81 mg/kg, Table 7, Dog 2, Dose 81.0 mg/kg, read-out: F): 73.4%
MRT (dog, plasma, im, 81 mg/kg, Table 7, Dog 2, Dose 81.0 mg/kg, read-out: MRT): 127 h
Vd/F [5]: 861 L/kg
k el (dog, plasma, im, 81 mg/kg, Table 7, Dog 2, Dose 81.0 mg/kg, read-out: k10 (converted)): 0.000456 s⁻¹
half-life (dog, plasma, im, 81 mg/kg, Table 7, Dog 2, Dose 81.0 mg/kg, read-out: t1/2,α (converted)): 0.07 h
half-life (dog, plasma, im, 81 mg/kg, Table 7, Dog 2, Dose 81.0 mg/kg, read-out: t1/2,β (converted)): 41.9 h
k el (dog, plasma, im, 81 mg/kg, Table 7, Dog 2, Dose 81.0 mg/kg, read-out: β (converted)): 4.72e-06 s⁻¹
bioavailability (dog, plasma, im, Beagle dogs, intramuscular, read-out: bioavailability): ~63%
half-life (dog, plasma, im, Beagle dogs, intramuscular, read-out: half life for excretion (converted)): ~30 h
A [6]: 20.9 μg/ml and 14.1 μg/ml (2×) and 9.5 μg/ml and 16.5 μg/ml
AUMC [6]: 934.4 h^2 μg/ml and 915.0 h^2 μg/ml and 886.2 h^2 μg/ml and 1217.4 h^2 μg/ml and 1063.0 h^2 μg/ml
Abs. time [6]: 164.5 h and 95.6 h (2×) and 49.3 h and 58.0 h
B [6]: 0.46 µg/mL and 0.22 µg/mL and 0.32 µg/mL and 0.36 µg/mL and 0.21 µg/mL
Cmax [6]: 59 ng/mL and 112 ng/mL and 197 ng/mL and 255 ng/mL and 123 ng/mL
F [6]: 87.9% and 40.4% and 59.6% and 68.8%
MRT [6]: 61.1 h and 62.7 h and 79.1 h
Vc [6]: 13.88 L/kg and 10.21 L/kg and 14.95 L/kg and 10.65 L/kg and 24.50 L/kg
Vss [6]: 360.9 L/kg and 428.1 L/kg and 303.6 L/kg and 1325 L/kg
k12 [6]: 6.16 h⁻¹ and 5.53 h⁻¹ and 21.55 h⁻¹ and 3.89 h⁻¹ and 5.43 h⁻¹
k21 [6]: 0.25 h⁻¹ and 0.13 h⁻¹ and 0.78 h⁻¹ and 0.14 h⁻¹ and 0.10 h⁻¹
ko [6]: 129.9 µg/kg/h and 149.9 µg/kg/h and 199.1 µg/kg/h and 249.5 µg/kg/h and 174.9 µg/kg/h
t1/2,β [6]: 10.94 h and 30.61 h and 28.64 h and 30.99 h and 37.26 h
α [6]: 8.54 h⁻¹ and 6.85 h⁻¹ and 23.02 h⁻¹ and 4.76 h⁻¹ and 6.74 h⁻¹
order of absorption (injection oil vehicle, intramuscular): zero order
kinetic linearity with dose (two doses in the same dog): linear kinetic
